Here are results for 3 compounds from patent publication US20100278858A1, “PROCESS FOR PREPARING […] STRAINS” (priority 2007, published 2010).

Converted amounts (≈) assume the structure as drawn. A value given as a limit tells only on which side of the number the result lay.

Common to all, as to test: method of reducing viral plates (plaque reduction)
For one experiment, the system named is 1C3-syn-14-1. It counts as cell-based, HSV-1. The note with it: for IC50: Human alphaherpesvirus 1, strain 1C3 syn 14-1, read-out: IC50; for IC50 / Relative resistance (RR): Table VIII; for Relative resistance (RR): IC50 of clone 1C3 syn 14-1 / IC50 of HSV-1 (F); for susceptibility of variant to drug (in words): variant 1C3-syn-14-1. As for the experimental part: (§1) According to the present invention, a method of reducing the viral plates comprises the following process: Vero cells monolayers developed in 24 wells microplates are infected with 50 UFP/well of virus in the absence or presence of different compounds concentrations. Each dilution is tested by duplicate. After 1 hour adsorption at 37° C., the inoculum is removed and covered by plating medium (culture media with methylcellulose at a final concentration of 0.7%). Inoculation is continued till the viral plates' appearance, which are then counted after fitting and dying the cells with violet crystal. Moreover, according to the present invention, 50% inhibitory concentration (IC50) means the compound concentration required for reducing about 50% the number of viral plates.
(§2) Compounds were present during the viral adsorption (1h, 37° C.) and after the infection. When a cytopathic action (ACP) between 80-90%, during a period among 24 to 72 hours p.i., was observed, cells were lysed with freeze-thawing cycles. In order to remove cellular moieties, the cellular lisate was centrifuged during 10 min at 1000 rpm, keeping the supernatant at −70° C. The supernatant was used to infect a new monolayer in the presence of SAMMA or PRO2000. […] The title and the IC50 of each viral passage was determined by viral plates reduction test (or after 2-3 passages) against SAMMA or PRO20000.

In the next experiment the test system is 1C3 syn 20-3. It counts as cell-based, HSV-1. The note with it: for IC50: Human alphaherpesvirus 1, strain 1C3 syn 20-3, read-out: IC50; for Relative resistance (RR): IC50 of clone 1C3 syn 20-3 / IC50 of HSV-1 (F). As for the experimental part: as §1
(§3) Thus, preliminary tests of the cloned variants of passages with greater selection pressure of 1C3 (17, 20 and 21) with pyrimidine and purine analogous as aciclovir (ACV) and brivudin (BVDU) would disclose alterations at viral TK level as it is shown in Table VIII, a characteristic that, up to date, has not been published in previous art documents. The TK gene is not essential for the in vitro viral replication, though in vivo, is involved in the virulence, pathogenicity and reactivation since latency (Andrei G et al., 2005). […] Therefore, the selection pressure to which the viruses were subjected could have selected mutations in the TK gene and in additional superimposing genes generating strains with less in vivo pathogenic action (Jacobson J et al., 1993).

A further experiment deals with 1C3 syn 17-1. It counts as cell-based, HSV-1. The following applies: for IC50: Human alphaherpesvirus 1, strain 1C3 syn 17-1, read-out: IC50; for Relative resistance (RR): IC50 of clone 1C3 syn 17-1 / IC50 of HSV-1 (F). As for the experimental part: as §1, §3
The next experiment relates to 1C3 syn 17-3. In kind it is cell-based, HSV-1. The note with it: for IC50: Human alphaherpesvirus 1, strain 1C3 syn 17-3, read-out: IC50; for Relative resistance (RR): IC50 of clone 1C3 syn 17-3 / IC50 of HSV-1 (F). As for the experimental part:
as §1, §3

Another experiment concerns 1C3 syn 17-2. It counts as cell-based, HSV-1. The following applies: for IC50: Human alphaherpesvirus 1, strain 1C3 syn 17-2, read-out: IC50; for Relative resistance (RR): IC50 of clone 1C3 syn 17-2 / IC50 of HSV-1 (F). As for the experimental part:
as §1, §3

The subject of another experiment is 1C3 syn 21-1. It counts as cell-based, HSV-1. The following applies: for IC50: Human alphaherpesvirus 1, strain 1C3 syn 21-1, read-out: IC50; for Relative resistance (RR): IC50 of clone 1C3 syn 21-1 / IC50 of HSV-1 (F). As for the experimental part: as §1, §3
The test system of a further experiment is 1C3 syn 21-2. It counts as cell-based, HSV-1. The following applies: for IC50: Human alphaherpesvirus 1, strain 1C3 syn 21-2, read-out: IC50; for Relative resistance (RR): IC50 of clone 1C3 syn 21-2 / IC50 of HSV-1 (F). As for the experimental part: as §1, §3
The next experiment has as its system 1C3 syn 21-3. In kind it is cell-based, HSV-1. The note with it: for IC50: Human alphaherpesvirus 1, strain 1C3 syn 21-3, read-out: IC50; for Relative resistance (RR): IC50 of clone 1C3 syn 21-3 / IC50 of HSV-1 (F). As for the experimental part: as §1, §3
The test system of a further experiment is 1C3 syn 20-1. It counts as cell-based, HSV-1. The note with it: for IC50: Human alphaherpesvirus 1, strain 1C3 syn 20-1, read-out: IC50; for Relative resistance (RR): IC50 of clone 1C3 syn 20-1 / IC50 of HSV-1 (F). As for the experimental part:
as §1, §3

A further experiment has as its system 1C3 syn 20-2. It counts as cell-based, HSV-1. The note with it: for IC50: Human alphaherpesvirus 1; for Relative resistance (RR): IC50 of clone 1C3 syn 20-2 / IC50 of HSV-1 (F). As for the experimental part:
as §1, §3

The next experiment concerns HSV-1 TK^− B2006. In kind it is cell-based. The following applies: for IC50: Human alphaherpesvirus 1; for Relative resistance (RR): IC50 of HSV-1 TK^− B2006 / IC50 of HSV-1 (F). As for the experimental part: as §1, §3
The subject of another experiment is HSV-1 (F). In kind it is cell-based. The note with it: Human alphaherpesvirus 1; Table VIII; strain HSV-1 (F); read-out: IC50. As for the experimental part:
as §1, §2

Regarding `O=C(O)P(=O)(O)O` [Foscarnet, foscarnet], the IC50 worked out at 3.12 mg/L (≈ 24.8 µM) in the experiment on 1C3-syn-14-1; 17.6 mg/L (≈ 140 µM) in the experiment with 1C3 syn 20-3; 17.6 mg/L (≈ 140 µM) in the experiment on 1C3 syn 17-1; 17.6 mg/L (≈ 140 µM) with 1C3 syn 17-3; 12.5 mg/L (≈ 99.2 µM) in the experiment on 1C3 syn 17-2; 8.82 mg/L (≈ 70 µM) in the experiment on 1C3 syn 21-1. The 50% inhibitory concentration (IC50) with 1C3 syn 21-2 stood at 17.6 mg/L (≈ 140 µM); with 1C3 syn 21-3, 12.5 mg/L (≈ 99.2 µM); in the experiment with 1C3 syn 20-1 it was 12.5 mg/L (≈ 99.2 µM); in the experiment on 1C3 syn 20-2, 12.5 mg/L (≈ 99.2 µM); in the experiment with HSV-1 TK^− B2006, 35.1 mg/L (≈ 279 µM); in the experiment with HSV-1 (F) it was 6.12 mg/L (≈ 48.6 µM). In addition, the “Relative resistance (RR)” value in the experiment with 1C3-syn-14-1 was less than 1.0; in the experiment with 1C3 syn 20-3, 2.9; with 1C3 syn 17-1, 2.9; in the experiment with 1C3 syn 17-3 it was 2.9; with 1C3 syn 17-2, 2.0; in the experiment with 1C3 syn 21-1 it was 1.4. Also, the “Relative resistance (RR)” value was 2.9 in the experiment with 1C3 syn 21-2; 2.0 in the experiment with 1C3 syn 21-3; 2.0 in the experiment with 1C3 syn 20-1; 2.0 in the experiment with 1C3 syn 20-2; 5.0 in the experiment on HSV-1 TK^− B2006.

Turning to `O=c1[nH]c(=O)n([C@H]2C[C@H](O)[C@@H](CO)O2)cc1/C=C/Br` [Brivudin, brivudin], the IC50 is 0.02 mg/L (≈ 0.06 µM) in the experiment on 1C3-syn-14-1; 0.06 mg/L (≈ 0.18 µM) in the experiment on 1C3 syn 20-3; 0.08 mg/L (≈ 0.24 µM) in the experiment on 1C3 syn 17-1; 0.08 mg/L (≈ 0.24 µM) with 1C3 syn 17-3; 0.13 mg/L (≈ 0.39 µM) in the experiment on 1C3 syn 17-2; 0.04 mg/L (≈ 0.12 µM) in the experiment with 1C3 syn 21-1. For the same compound, the half-inhibitory concentration (IC50) in the experiment with 1C3 syn 21-2 was 0.06 mg/L (≈ 0.18 µM); in the experiment on 1C3 syn 21-3 it was 0.06 mg/L (≈ 0.18 µM); in the experiment with 1C3 syn 20-1, 0.08 mg/L (≈ 0.24 µM); in the experiment on 1C3 syn 20-2 it was 0.05 mg/L (≈ 0.15 µM); with HSV-1 TK^− B2006, greater than 0.16 mg/L; in the experiment on HSV-1 (F), 0.01 mg/L (≈ 0.03 µM). Moreover, the “Relative resistance (RR)” value was determined as 2.0 in the experiment with 1C3-syn-14-1; 6.0 in the experiment on 1C3 syn 20-3; 8.0 with 1C3 syn 17-1; 8.0 with 1C3 syn 17-3; 13.0 with 1C3 syn 17-2; 4.0 in the experiment with 1C3 syn 21-1. Moreover, the “Relative resistance (RR)” value in the experiment on 1C3 syn 21-2 is 6.0; with 1C3 syn 21-3, 6.0; in the experiment on 1C3 syn 20-1 it was 8.0; with 1C3 syn 20-2, 5.6; in the experiment on HSV-1 TK^− B2006, 16.0. Besides, the “susceptibility of variant to drug (in words)” value with 1C3-syn-14-1 is listed as “rare resistance”.

`Nc1nc2c(ncn2COCCO)c(=O)[nH]1` [Aciclovir, aciclovir]: the IC50 was determined as 0.1 mg/L (≈ 0.444 µM) with 1C3-syn-14-1; 0.2 mg/L (≈ 0.888 µM) in the experiment on 1C3 syn 20-3; 0.28 mg/L (≈ 1.24 µM) in the experiment on 1C3 syn 17-1; 0.2 mg/L (≈ 0.888 µM) in the experiment with 1C3 syn 17-3; 0.2 mg/L (≈ 0.888 µM) in the experiment on 1C3 syn 17-2; 0.2 mg/L (≈ 0.888 µM) in the experiment with 1C3 syn 21-1. Also, the IC50 was 0.4 mg/L (≈ 1.78 µM) in the experiment on 1C3 syn 21-2; 0.2 mg/L (≈ 0.888 µM) with 1C3 syn 21-3; 0.4 mg/L (≈ 1.78 µM) with 1C3 syn 20-1; 0.2 mg/L (≈ 0.888 µM) in the experiment on 1C3 syn 20-2; greater than 0.5 mg/L in the experiment on HSV-1 TK^− B2006; 0.05 mg/L (≈ 0.222 µM) in the experiment on HSV-1 (F). The “Relative resistance (RR)” value in the experiment with 1C3-syn-14-1 is recorded as 2.0; in the experiment on 1C3 syn 20-3, 4.0; in the experiment with 1C3 syn 17-1 it was 5.6; in the experiment on 1C3 syn 17-3, 4.0; with 1C3 syn 17-2, 4.0; with 1C3 syn 21-1 it was 4.0. Also, the “Relative resistance (RR)” value is 8.0 with 1C3 syn 21-2; 4.0 with 1C3 syn 21-3; 8.0 in the experiment on 1C3 syn 20-1; 4.0 in the experiment on 1C3 syn 20-2; 10.0 in the experiment with HSV-1 TK^− B2006. For the same compound, the “susceptibility of variant to drug (in words)” value in the experiment with 1C3-syn-14-1 is on record as “rare resistance”.

For orientation: IC50 means the point on the concentration scale where inhibition reaches its midpoint.
